Measured values as given in the supplement of paper PMC11451515.

Test system: NOMO1
Assay: cell viability relative to DMSO control; higher = less cytotoxic
Settings: 48 h
How it was run: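 Viability values are per-plate percentages of DMSO wells, with background from cell-free wells. Library compounds in DMSO were pin-dosed, in an 11-point threefold series from 47 μM to 0.79 nM, onto NOMO1 or SEM (500 cells/well) or P12-Ichikawa (1000 cells/well) leukemia cells in 1536-well plates (5 μl). Those cells had been adapted for at least four passages in each medium, and CellTiter-Glo One luminescence was read after 48 h at 37°C.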

[1] = RPMI 5 mM glucose + 10% FBS, 0.000781 µM
[2] = RPMI 5 mM glucose + 10% FBS, 0.00234 µM
[3] = RPMI 5 mM glucose + 10% FBS, 0.00702 µM
[4] = RPMI 5 mM glucose + 10% FBS, 0.0211 µM
[5] = RPMI 5 mM glucose + 10% FBS, 0.0632 µM
[6] = RPMI 5 mM glucose + 10% FBS, 0.19 µM
[7] = RPMI 5 mM glucose + 10% FBS, 0.569 µM
[8] = RPMI 5 mM glucose + 10% FBS, 1.71 µM
[9] = RPMI 5 mM glucose + 10% FBS, 5.12 µM
[10] = RPMI 5 mM glucose + 10% FBS, 15.4 µM
[11] = RPMI 5 mM glucose + 10% FBS, 46.1 µM
[12] = HPLM + 10% dialyzed FBS, 0.000781 µM
[13] = HPLM + 10% dialyzed FBS, 0.00234 µM
[14] = HPLM + 10% dialyzed FBS, 0.00702 µM
[15] = HPLM + 10% dialyzed FBS, 0.0211 µM
[16] = HPLM + 10% dialyzed FBS, 0.0632 µM
[17] = HPLM + 10% dialyzed FBS, 0.19 µM
[18] = HPLM + 10% dialyzed FBS, 0.569 µM
[19] = HPLM + 10% dialyzed FBS, 1.71 µM
[20] = HPLM + 10% dialyzed FBS, 5.12 µM
[21] = HPLM + 10% dialyzed FBS, 15.4 µM
[22] = HPLM + 10% dialyzed FBS, 46.1 µM
[23] = RPMI 5 mM glucose + 10% dialyzed FBS, 0.000781 µM
[24] = RPMI 5 mM glucose + 10% dialyzed FBS, 0.00234 µM
[25] = RPMI 5 mM glucose + 10% dialyzed FBS, 0.00702 µM
[26] = RPMI 5 mM glucose + 10% dialyzed FBS, 0.0211 µM
[27] = RPMI 5 mM glucose + 10% dialyzed FBS, 0.0632 µM
[28] = RPMI 5 mM glucose + 10% dialyzed FBS, 0.19 µM
[29] = RPMI 5 mM glucose + 10% dialyzed FBS, 0.569 µM
[30] = RPMI 5 mM glucose + 10% dialyzed FBS, 1.71 µM
[31] = RPMI 5 mM glucose + 10% dialyzed FBS, 5.12 µM
[32] = RPMI 5 mM glucose + 10% dialyzed FBS, 15.4 µM
[33] = RPMI 5 mM glucose + 10% dialyzed FBS, 46.1 µM

SMILES | cell viability [1] | cell viability [2] | cell viability [3] | cell viability [4] | cell viability [5] | cell viability [6] | cell viability [7] | cell viability [8] | cell viability [9] | cell viability [10] | cell viability [11] | cell viability [12] | cell viability [13] | cell viability [14] | cell viability [15] | cell viability [16] | cell viability [17] | cell viability [18] | cell viability [19] | cell viability [20] | cell viability [21] | cell viability [22] | cell viability [23] | cell viability [24] | cell viability [25] | cell viability [26] | cell viability [27] | cell viability [28] | cell viability [29] | cell viability [30] | cell viability [31] | cell viability [32] | cell viability [33]
O=C(O)CCNC(=O)c1ccc(/N=N/c2ccc(O)c(C(=O)O)c2)cc1 | 106% | 125% | 113% | 122% | 110% | 110% | 117% | 106% | 117% | 116% | 76.7% | – | – | – | – | – | – | – | – | – | – | – | – | – | – | – | – | – | – | – | – | – | –
CCCCN(CCCC)CC(O)c1cc(Cl)cc2c1-c1ccc(Cl)cc1/C2=C/c1ccc(Cl)cc1 (configuration not stated) | 83.3% | 102% | 94.6% | 87.1% | 105% | 86.9% | 87.5% | 90.7% | 104% | 94.9% | 97.8% | 94.7% | 87.5% | 104% | 107% | 93.6% | 107% | 90.5% | 97.9% | 82.6% | 95% | 92.6% | 104% | 91.8% | 93.7% | 104% | 99.4% | 104% | 102% | 89.8% | 95.4% | 72.9% | 103%
CC(C)OC(=O)[C@H](C)N[P@](=O)(OC[C@H]1O[C@@H](N2\C=C/C(=O)NC2=O)[C@](C)(F)[C@@H]1O)OC3=CC=CC=C3 | 101% | 99.8% | 116% | 98.4% | 107% | 99.9% | 95.7% | 98% | 87.3% | 17.5% | 19% | 115% | 125% | 119% | 122% | 127% | 131% | 87.5% | 91% | 40.5% | 34.3% | 40.8% | 101% | 110% | 115% | 130% | 114% | 100% | 99.8% | 101% | 81.3% | 23.7% | 24.1%
CCCNC(=O)Nc1ccc(Oc2ncnc3cc(OC)c(OC)cc23)cc1Cl | 89.6% | 90.7% | 84.7% | 95.7% | 86% | 90.6% | 81.9% | 90.3% | 87.4% | 82% | 77.6% | 96.9% | 98% | 84.1% | 95.7% | 97.7% | 87.9% | 103% | 81.8% | 71% | 71.6% | 73.5% | 97.8% | 92.4% | 101% | 96.7% | 90.9% | 88.4% | 86.7% | 84.4% | 84.7% | 81.9% | 70.5%
CCc1ccc(/C=C2/SC(=S)NC2=O)cc1 | 75.7% | 83.5% | 81.8% | 81.9% | 87.2% | 83.8% | 88.1% | 76.3% | 93.4% | 59.9% | 75% | 70.3% | 79.1% | 88% | 86% | 74.5% | 74.2% | 79.2% | 79.7% | 94.3% | 51.3% | 92.2% | 78.2% | 71.1% | 83.2% | 81.4% | 87.5% | 73.4% | 84.3% | 82.1% | 85.3% | 48.6% | 86.3%
Cc1ccc([S+](=O)([O-])OCC(=O)Nc2ccc(C(=O)O)c(O)c2)cc1 | 122% | 119% | 124% | 139% | 133% | 150% | 133% | 130% | 118% | 121% | 102% | 141% | 123% | 121% | 117% | 124% | 145% | 128% | 132% | 124% | 146% | 84.1% | 106% | 113% | 127% | 121% | 131% | 139% | 142% | 142% | 146% | 146% | 122%
CC#CCn1c(N2CCC[C@@H](N)C2)nc2c1c(=O)n(Cc1nc(C)c3ccccc3n1)c(=O)n2C | 97.6% | 93.7% | 101% | 90.3% | 89% | 96.3% | 102% | 89% | 88.1% | 91.1% | 82% | 97.8% | 97.2% | 100% | 88.2% | 108% | 110% | 104% | 87.8% | 98.3% | 114% | 75.1% | 104% | 96.6% | 112% | 87.7% | 101% | 105% | 100% | 96.3% | 93.8% | 97.7% | 91.7%
CC(N[C@H]1CCCC[C@@H]1NC(=O)c1ccc(Cl)cc1)c1cccc2ccccc12 (some centres not stated) | 100% | 107% | 120% | 114% | 110% | 113% | 114% | 102% | 105% | 19.9% | 18.2% | 117% | 131% | 112% | 127% | 113% | 110% | 139% | 86.3% | 83% | 28% | 29.5% | 102% | 108% | 113% | 112% | 111% | 117% | 103% | 103% | 107% | 25.4% | 24.2%
